What follows are compounds tested against T1, hTRPV3 (Homo sapiens, UniProt Q8NET8) (assay: Whole-cell patch-clamp recording of hTRPV3 current in transfected HEK293T cells (2-APB induced)). Details: current induced by 300 μM 2-APB, compounds tested up to 10 μM, room temperature.
T1 construct: The commercially available plasmid with the full-length cDNA of hTRPV3 (791 aa) (NM_001258205.2); host or cells: HEK293T
T1 sequence (Q8NET8 1-791 isoform Q8NET8-2): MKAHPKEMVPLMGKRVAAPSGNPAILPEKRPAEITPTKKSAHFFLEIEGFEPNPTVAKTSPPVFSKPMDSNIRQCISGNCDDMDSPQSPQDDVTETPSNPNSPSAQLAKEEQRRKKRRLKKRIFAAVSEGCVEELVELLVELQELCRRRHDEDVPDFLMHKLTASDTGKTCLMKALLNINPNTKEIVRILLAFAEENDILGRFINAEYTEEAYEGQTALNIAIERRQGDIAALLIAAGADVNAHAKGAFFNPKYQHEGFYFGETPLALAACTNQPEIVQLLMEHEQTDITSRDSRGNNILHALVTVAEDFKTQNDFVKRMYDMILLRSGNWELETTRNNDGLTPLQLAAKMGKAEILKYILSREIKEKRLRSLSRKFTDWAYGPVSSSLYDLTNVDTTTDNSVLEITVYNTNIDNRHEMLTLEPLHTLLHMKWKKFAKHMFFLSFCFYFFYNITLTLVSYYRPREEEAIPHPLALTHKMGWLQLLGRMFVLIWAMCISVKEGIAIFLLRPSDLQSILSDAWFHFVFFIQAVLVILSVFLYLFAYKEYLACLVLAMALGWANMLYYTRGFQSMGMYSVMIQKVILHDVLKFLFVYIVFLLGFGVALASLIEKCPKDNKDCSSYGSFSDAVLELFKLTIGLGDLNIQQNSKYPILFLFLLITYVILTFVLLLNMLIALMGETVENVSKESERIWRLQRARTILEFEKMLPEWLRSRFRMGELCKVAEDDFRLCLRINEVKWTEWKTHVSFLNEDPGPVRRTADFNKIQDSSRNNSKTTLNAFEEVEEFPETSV
Assay type: cell-based
Method: Various technologies can be utilized to assess TRPV3 activation in accordance with the present disclosure. For example, in some embodiments, compounds are assessed in in vitro patch clamp experiments. Certain useful procedures are described herein as examples.
In some embodiments, whole-cell patch-clamp recordings were used to detect the current through hTRPV3 channels in the HEK293T cell line transfected with hTRPV3 cDNA and evaluate the exact blocking effect of compounds on hTRPV3. In some embodiments, a perfusion system was adopted to control the extracellular solution, including the addition of the agonist and different antagonists.
HEK293T cells were cultured in a Dulbecco's modified Eagle's medium containing 10% fetal bovine serum (Thermo Scientific) and 1% penicillin/streptomycin (Thermo Scientific) at 37° C. with 5% CO2. The commercially available plasmid with the full-length cDNA of hTRPV3 (791 aa) (NM_001258205.2) was purchased from OriGene Technologies. The transfection of hTRPV3 plasmids was conducted using Lipofectamine™ 3000 following the manufacturer's instructions (Invitrogen).
Whole-cell patch-clamp experiments were performed 18 h post-transfection, using a MultiClamp 700B amplifier driven by pClamp 11 software (Molecular Devices). In order to achieve good single-cell physical separation, HEK293T cells with hTRPV3 expression were digested and then re-plated at low density on glass coverslips. Electrodes were pulled from borosilicate glass with a P-97 micropipette puller (Sutter Instruments) and those with resistances of 3-5 MΩ are used for experiments. In some embodiments, an Ag—AgCl wire was used as a reference electrode and signals are filtered using a 2.9 kHz low-pass Bessel filter. Membrane potential was held at 0 mV. For recording of agonist-induced activation and inhibition by different test compounds, currents were elicited by a protocol consisting of a 400-ms step to +80 mV, followed by a 400-ms step to −80 mV at 2-s intervals. both pipette and bath solutions contained 130 mM NaCl, 0.3 mM EDTA, and 3 mM HEPES (buffered to pH 7.4 with NaOH). All recordings were made at room temperature.
All patch-clamp recordings were analyzed using the Clampfit software and GraphPad Prism 6.0 software. Specifically, data are analyzed by calculating the degree of current amplitude after the test compound addition compared with the unblocked agonist-induced current amplitude. The resulting blocking percentage at each concentration was used to make a concentration-response analysis and fitted to the Hill equation: blocking percentage=minimum blocking percentage+ (maximum blocking percentage-minimum blocking percentage)/(1+10^(Hill slope* […])). The minimum blocking percentage is 0% and maximum blocking percentage is 100%, while the Hill slope and the IC50 were determined as the curve fitting routine. Compounds of interest were tested against hTRPV3 at concentrations up to 10 μM, and certain data was used to estimate IC50 as described herein.

IC50	Structure (SMILES)
≥ 10 µM	COc1ncnc(O)c1C(=O)Nc1nc2c(s1)C1(COC1)Oc1cc(C(C)C)ccc1-2 [compound 144, 4-hydroxy-N-(7-isopropylspiro[chromeno[4,3-d]thiazole-4,3′-oxetan]-2-yl)-6-methoxypyrimidine-5-carboxamide]
1 to 10 µM	CCC1(CC)Oc2cc(C(F)(F)F)ccc2-c2nc(NC(=O)c3c(C)ncnc3C)sc21 [compound 52, N-(4,4-diethyl-7-(trifluoromethyl)-4H-chromeno[4,3-d]thiazol-2-yl)-4,6-dimethylpyrimidine-5-carboxamide]
≥ 10 µM	CCC1(CC)Oc2cc(C(F)(F)F)ccc2-c2nc(NC(=O)c3c[nH]nc3OC)sc21 [compound 94, N-(4,4-diethyl-7-(trifluoromethyl)-4H-chromeno[4,3-d]thiazol-2-yl)-3-methoxy-1H-pyrazole-4-carboxamide]
0.1 to 1 µM	COc1ncnc(OC)c1C(=O)Nc1nc2c(s1)CCOc1cc(C(F)(F)F)ccc1-2 [compound 82, 4,6-dimethoxy-N-(8-(trifluoromethyl)-4,5-dihydrobenzo[2,3]oxepino[4,5-d]thiazol-2-yl)pyrimidine-5-carboxamide]
≥ 10 µM	COc1ncnc(OC)c1C(=O)Nc1nc2c(s1)C1(CCNCC1)Oc1cc(C(F)(F)F)ccc1-2 [compound 45, 4,6-dimethoxy-N-(7-(trifluoromethyl)spiro[chromeno[4,3-d]thiazole-4,4′-piperidin]-2-yl)pyrimidine-5-carboxamide]
0.1 to 1 µM	COc1ncnc(OC)c1C(=O)Nc1nc2c(s1)C(C)(C)Oc1cc(C(F)(F)F)ccc1-2 [compound 8, N-(4,4-dimethyl-7-(trifluoromethyl)-4H-chromeno[4,3-d]thiazol-2-yl)-4,6-dimethoxypyrimidine-5-carboxamide]
0.1 to 1 µM	COc1ncnc(OC)c1C(=O)Nc1nc2c(s1)C1(CCN(C(C)=O)CC1)Oc1cc(C(F)(F)F)ccc1-2 [compound 64, N-(1′-acetyl-7-(trifluoromethyl)spiro[chromeno[4,3-d]thiazole-4,4′-piperidin]-2-yl)-4,6-dimethoxypyrimidine-5-carboxamide]
< 0.1 µM	COCCN1CC2(C1)Oc1cc(C(F)(F)F)ccc1-c1nc(NC(=O)c3c(OC)ncnc3OC)sc12 [compound 157, 4,6-dimethoxy-N-(1-(2-methoxyethyl)-7′-(trifluoromethyl)spiro[azetidine-3,4′-chromeno[4,3-d]thiazol]-2′-yl)pyrimidine-5-carboxamide]
1 to 10 µM	CCOC(=O)c1ccc2c(c1)OC(CC)(CC)c1sc(NC(=O)c3c(OC)ncnc3OC)nc1-2 [compound 62, ethyl 2-(4,6-dimethoxypyrimidine-5-carboxamido)-4,4-diethyl-4H-chromeno[4,3-d]thiazole-7-carboxylate]
< 0.1 µM	COC(=O)CN1CC2(C1)Oc1cc(C(F)(F)F)ccc1-c1nc(NC(=O)c3c(OC)ncnc3OC)sc12 [compound 163]
1 to 10 µM	CCOC(=O)[C@H]1CC[C@@]2(CC1)Oc1cc(C(C)C)ccc1-c1nc(NC(=O)c3c(OC)ncnc3OC)sc12 [compound 130]
≥ 10 µM	CCC1(CC)Oc2cc(C(F)(F)F)ccc2-c2nc(NC(=O)c3c(OC)nc(OC)nc3OC)sc21 [compound 158, N-(4,4-diethyl-7-(trifluoromethyl)-4H-chromeno[4,3-d]thiazol-2-yl)-2,4,6-trimethoxypyrimidine-5-carboxamide]
1 to 10 µM	CCC1(CC)Oc2cnccc2-c2nc(NC(=O)c3c(OC)ncnc3OC)sc21 [compound 107]
≥ 10 µM	COc1ncnc(OC)c1C(=O)Nc1nc2c(s1)COc1cc(Br)ccc1-2 [compound 6, N-(7-bromo-4H-chromeno[4,3-d]thiazol-2-yl)-4,6-dimethoxypyrimidine-5-carboxamide]
≥ 10 µM	CCC1(CC)Oc2cc3c(cc2-c2nc(NC(=O)c4c(OC)ncnc4OC)sc21)OCO3 [compound 51, N-(4,4-diethyl-4H-[1,3]dioxolo[4′,5′: 6,7]chromeno[4,3-d]thiazol-2-yl)-4,6-dimethoxypyrimidine-5-carboxamide]
0.1 to 1 µM	COc1ncnc(OC)c1C(=O)Nc1nc2c(s1)C1(CCCN(C(=O)OC(C)(C)C)C1)Oc1cc(C(F)(F)F)ccc1-2 (stereo not shown) [compound 12, tert-butyl 2-(4,6-dimethoxypyrimidine-5-carboxamido)-7-(trifluoromethyl)spiro[chromeno[4,3-d]thiazole-4,3′-piperidine]-1′-carboxylate]
0.1 to 1 µM	CCC1CCC2(CC1)Oc1cc(C(F)(F)F)ccc1-c1nc(NC(=O)c3c(OC)ncnc3OC)sc12 (stereo not shown) [compound 31, N-(4′-ethyl-7-(trifluoromethyl)spiro[chromeno[4,3-d]thiazole-4,1′-cyclohexan]-2-yl)-4,6-dimethoxypyrimidine-5-carboxamide]
1 to 10 µM	C=CCc1ncnc(OC)c1C(=O)Nc1nc2c(s1)C(CC)(CC)Oc1cc(C(F)(F)F)ccc1-2 [compound 119, 4-allyl-N-(4,4-diethyl-7-(trifluoromethyl)-4H-chromeno[4,3-d]thiazol-2-yl)-6-methoxypyrimidine-5-carboxamide]
1 to 10 µM	CCC1(CC)Oc2cc(C(F)(F)F)ccc2-c2nc(NC(=O)c3c(NC)ncnc3OC)sc21 [compound 120, N-(4,4-diethyl-7-(trifluoromethyl)-4H-chromeno[4,3-d]thiazol-2-yl)-4-methoxy-6-(methylamino)pyrimidine-5-carboxamide]
1 to 10 µM	COc1ncnc(OC)c1C(=O)Nc1nc2c(s1)C1(CN(CCN(C)C)C1)Oc1cc(C(F)(F)F)ccc1-2 [compound 164, N-(1-(2-(dimethylamino)ethyl)-7′-(trifluoromethyl)spiro[azetidine-3,4′-chromeno[4,3-d]thiazol]-2′-yl)-4,6-dimethoxypyrimidine-5-carboxamide]
< 0.1 µM	CCC1(CC)Oc2cc(C(F)(F)F)ccc2-c2nc(NC(=O)c3c(OC)ncnc3OC)sc21 [compound 24, N-(4,4-diethyl-7-(trifluoromethyl)-4H-chromeno[4,3-d]thiazol-2-yl)-4,6-dimethoxypyrimidine-5-carboxamide]
≥ 10 µM	COc1ncnc(OC)c1C(=O)Nc1nc2c(s1)CCc1cc(C(F)(F)F)ccc1-2 [compound 22, 4,6-dimethoxy-N-(7-(trifluoromethyl)-4,5-dihydronaphtho[1,2-d]thiazol-2-yl)pyrimidine-5-carboxamide]
0.1 to 1 µM	COCOCC1(COCOC)Oc2cc(C(F)(F)F)ccc2-c2nc(NC(=O)c3c(OC)ncnc3OC)sc21 [compound 118]
1 to 10 µM	CCC1(CC)Oc2cc(C(F)(F)F)ccc2-c2nc(NC(=O)c3c(OC)nc(C)nc3OC)sc21 [compound 162, N-(4,4-diethyl-7-(trifluoromethyl)-4H-chromeno[4,3-d]thiazol-2-yl)-4,6-dimethoxy-2-methylpyrimidine-5-carboxamide]
0.1 to 1 µM	CCC(C)(C)C(=O)N1CC2(C1)Oc1cc(C(F)(F)F)ccc1-c1nc(NC(=O)c3c(OC)ncnc3OC)sc12 [compound 74, N-(1-(2,2-dimethylbutanoyl)-7′-(trifluoromethyl)spiro[azetidine-3,4′-chromeno[4,3-d]thiazol]-2′-yl)-4,6-dimethoxypyrimidine-5-carboxamide]
